Earlier results, collected in patent publication US20160213782A1, “POLYURETHANES AS ORAL DRUG DELIVERY PLATFORM” (Universiteit Gent, priority 2013, published 2016).
Structures can show the parent of a compound that is named as a salt.

Conditions: for aqueous solubility in 100 ml at 25° C.: in 100 ml water; for drug solubility: as given in legend of FIG. 1

| aqueous solubility in 100 ml at 25° C. [g] | Compound | drug solubility [mg/mL] |
| --- | --- | --- |
| 33 | Cn1c(=O)c2c(ncn2CC(O)CO)n(C)c1=O (centres unmarked) [Dyph, 7-(2,3-dihydroxypropyl)-theophylline] | – |
| 1.4 | CC(=O)Nc1ccc(O)cc1 [acetaminophen] | – |
| – | COCCc1ccc(OCC(O)CNC(C)C)cc1 (centres unmarked) [MPT, Metoprolol tartrate] | > 1000 |

| Compound | aqueous solubility in 100 ml at 25° C. [g] | drug solubility [mg/mL] |
| --- | --- | --- |
| Cn1c(=O)c2[nH]cnc2n(C)c1=O [TH, Theophylline] | 0.7 | 10 |
